Patent publication US20210137549A1, “DEVICE FOR CHEMICALLY ASSISTED DISSECTION” (AuXin Surgery SA, priority 2013, published 2021)
Read-outs that look alike come from different tables or passages of the source. Blank lines part the entries; values can stand above or below the compound they belong to.

Key:
[1] = Stability study of solutions comprising Mesna and riboflavin 5′-phosphate sodium (HPLC quantification of Mesna); type: physicochemical; settings: 4° C. and 20° C.
Description: A stability study was conducted for the purpose of evaluating a possible interaction between riboflavin 5′-phosphate sodium, a dye accepted for parenteral use in humans, and Mesna. […]
In order to validate the obtained data, a reference corresponding to a reconstituted solution of Mesna without riboflavin 5′-phosphate sodium was analyzed at the same time as the samples comprising riboflavin 5′-phosphate sodium (Table 5).

[2] = Stability study of Mesna powder in the presence of riboflavin 5′-phosphate sodium (weight, dry oven); type: physicochemical
Description: About 1.5 g of Mesna powder was accurately weighed, without or with 7 mg or 15 mg of riboflavin 5′-phosphate sodium, and placed in a dry oven at 20° C. for 1 month to test its stability (Table 6).

[3] = rats, intraduodenal administration compared with i.v.; cited from earlier work
[4] = cited from earlier work

- variations in Mesna content after addition of riboflavin 5′-phosphate sodium ([1]; 0.23 mg/mL and 0.50 mg/mL RF5′PNa, before the 24 h point): ≤ 1%
- stability of Mesna in dry form in the presence of riboflavin 5′-phosphate sodium (conclusion) ([2]; dry form, 1 month at 20° C.): stable
Structure (SMILES): O=S(=O)([O-])CCS.[Na+] [Mesna, sodium 2-mercaptoethanesulfonate]

Structure (SMILES): CN(C)c1ccc2nc3ccc(=[N+](C)C)cc-3sc2c1 [methylene blue]
- tissue concentrations after intraduodenal versus i.v. administration [3]: higher concentrations in intestinal wall and liver but lower concentrations in whole blood and brain
- effect of co-administration of mesna on pharmacokinetics ([4]; 100 mg methylene blue with and without mesna): did not alter the pharmacokinetics
- urinary excretion of methylene blue and its leucoform ([4]; i.v. administration (second value of the pair)): 28 % dose
- urinary excretion of methylene blue and its leucoform ([4]; oral administration (first value of the pair)): 18 % dose
- estimated terminal half-life ([4]; whole blood, i.v. administration of 100 mg, seven volunteers): 5.25 h
- area under the concentration-time curve ([4]; whole blood, i.v. administration of 100 mg): 137 nmol/min/mL
- area under the concentration-time curve ([4]; whole blood, oral administration of 100 mg): 9 nmol/min/mL

- interaction of riboflavin 5′-phosphate sodium with Mesna in solution (conclusion) ([1]; phosphate buffer, 1 h and 24 h): does not interfere with or degrade Mesna
Structure (SMILES): Cc1cc2nc3c(=O)[nH]c(=O)nc-3n(C[C@H](O)[C@H](O)[C@H](O)COP(=O)([O-])O)c2cc1C.[Na+] [riboflavin 5′-phosphate sodium]

- W1 = weight after 1 month in dry oven at 20° C. ([2]; after 1 month in dry oven at 20° C., ± standard deviation): 4.807 ± 0.016 g
- W0 = weight before placement in dry oven at 20° C. ([2]; before placement in dry oven, ± standard deviation): 4.907 ± 0.038 g
Structure (SMILES): O=S(=O)([O-])CCS.[Na+] [1.5 g Mesna powder]
